Test results published in the supplement of paper PMC10307832.

Tests used:
Test in all cases: relative viability (nuclei count vs DMSO), 5 days (fraction); higher = more cells survive
Carfilzomib + Phenformin = compound: CC(C)C[C@H](NC(=O)[C@H](CCc1ccccc1)NC(=O)CN1CCOCC1)C(=O)N[C@@H](Cc1ccccc1)C(=O)N[C@@H](CC(C)C)C(=O)[C@@]1(C)CO1 [Carfilzomib] + N=C(N)NC(=N)NCCc1ccccc1 [Phenformin] (partner 250 µM)
Summary of the method: (§1)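 Relative viability is defined as nuclei in treated wells over nuclei in vehicle wells. Duplicate plates were run and medians reported. Lung cancer cell lines in 1536-well plates were dosed by pin tool one day after seeding, with one drug or with a fixed anchor-drug dose plus five library-drug doses (not always all listed) in √10 steps, and nuclei were counted after 5 days.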

Crizotinib + Palbociclib = compound: C[C@@H](Oc1cc(-c2cnn(C3CCNCC3)c2)cnc1N)c1c(Cl)ccc(F)c1Cl [Crizotinib] + CC(=O)c1c(C)c2cnc(Nc3ccc(N4CCNCC4)cn3)nc2n(C2CCCC2)c1=O [Palbociclib] (partner 0.5 µM)
Summary of the method: as §1

Olaparib + AZD7762 = compound: O=C(c1cc(Cc2n[nH]c(=O)c3ccccc23)ccc1F)N1CCN(C(=O)C2CC2)CC1 [Olaparib] + NC(=O)Nc1cc(-c2cccc(F)c2)sc1C(=O)N[C@H]1CCCNC1 [AZD7762] (partner 0.2 µM)
Summary of the method: as §1

Crizotinib + Lapatinib = compound: C[C@@H](Oc1cc(-c2cnn(C3CCNCC3)c2)cnc1N)c1c(Cl)ccc(F)c1Cl [Crizotinib] + CS(=O)(=O)CCNCc1ccc(-c2ccc3ncnc(Nc4ccc(OCc5cccc(F)c5)c(Cl)c4)c3c2)o1 [Lapatinib] (partner 2 µM)
Summary of the method: as §1

| Cell Line | relative viability (Carfilzomib + Phenformin; first compound 0.001 µM) | relative viability (Carfilzomib + Phenformin; first compound 0.003162 µM) | relative viability (Carfilzomib + Phenformin; first compound 0.01 µM) | relative viability (Carfilzomib + Phenformin; first compound 0.03162 µM) | relative viability (Carfilzomib + Phenformin; first compound 0.1 µM) | relative viability (Crizotinib + Palbociclib; first compound 0.01 µM) | relative viability (Crizotinib + Palbociclib; first compound 0.03162 µM) | relative viability (Crizotinib + Palbociclib; first compound 0.1 µM) | relative viability (Crizotinib + Palbociclib; first compound 1 µM) | relative viability (Olaparib + AZD7762; first compound 0.08 µM) | relative viability (Olaparib + AZD7762; first compound 0.253 µM) | relative viability (Olaparib + AZD7762; first compound 2.53 µM) | relative viability (Olaparib + AZD7762; first compound 8 µM) | relative viability (Crizotinib + Lapatinib; first compound 0.01 µM) | relative viability (Crizotinib + Lapatinib; first compound 0.03162 µM) | relative viability (Crizotinib + Lapatinib; first compound 0.1 µM) | relative viability (Crizotinib + Lapatinib; first compound 1 µM) | relative viability (Crizotinib + Palbociclib; first compound 0.3162 µM) | relative viability (Crizotinib + Lapatinib; first compound 0.3162 µM) |
| --- | --- | --- | --- | --- | --- | --- | --- | --- | --- | --- | --- | --- | --- | --- | --- | --- | --- | --- | --- |
| NCI-H23 | 0.772 | 0.684 | 0.762 | 0.36 | 0.134 | 0.343 | 0.504 | 0.53 | 0.536 | 0.3 | 0.269 | 0.269 | 0.147 | 1.12 | 1.03 | 1.09 | 1.18 |  |  |
| H3255 | 0.395 | 0.364 | 0.441 | 0.354 | 0.321 | 0.342 | 0.331 | 0.327 | 0.325 | 1.04 | 0.823 | 0.852 | 0.933 | 0.254 | 0.267 | 0.234 | 0.219 | 0.28 | 0.238 |
| NCI-H1355 | 0.427 | 0.51 | 0.469 | 0.302 | 0.167 | 0.415 | 0.378 | 0.387 | 0.406 | 0.74 | 0.749 | 0.714 | 0.696 |  | 1.04 | 1.07 | 0.986 | 0.406 | 0.863 |
| NCI-H1395 | 0.448 | 0.457 | 0.441 | 0.298 | 0.314 | 0.608 | 0.593 | 0.625 | 0.643 | 0.429 | 0.334 | 0.384 | 0.359 | 0.971 | 1.14 | 1 | 0.956 | 0.596 | 0.922 |
| EMC-BAC-2 | 0.52 | 0.62 | 0.572 | 0.376 | 0.199 | 0.507 | 0.509 | 0.519 | 0.479 | 1.25 | 1.08 | 1.08 | 0.91 | 0.852 | 0.897 | 0.911 | 0.887 |  | 0.749 |
| HCC-44 | 0.169 | 0.289 | 0.145 | 0.107 | 0.122 | 0.939 | 0.964 | 1.01 | 0.969 | 1.01 | 1 | 1.03 | 1.07 | 0.96 | 1.02 | 1.14 | 1.05 | 0.94 |  |
| PC-3 [JPC-3] | 0.487 | 0.461 | 0.464 | 0.432 | 0.261 | 0.53 | 0.566 | 0.545 | 0.553 | 0.887 |  | 0.866 | 0.926 | 0.408 | 0.448 | 0.446 | 0.459 |  | 0.422 |
| NCI-H1734 | 0.375 | 0.404 | 0.331 | 0.18 | 0.104 | 0.346 | 0.327 | 0.327 | 0.341 | 0.611 | 0.49 | 0.441 | 0.333 | 1.03 | 1.05 | 1 | 1.04 |  |  |
| HOP-62 | 0.749 | 0.694 | 0.415 | 0.232 | 0.0898 | 0.444 | 0.416 | 0.412 | 0.495 | 0.43 | 0.614 | 0.463 | 0.155 | 0.796 | 1.15 | 1.01 | 1 | 0.396 | 0.84 |
| HARA | 0.478 | 0.506 | 0.403 | 0.0435 | 0.0629 | 0.273 | 0.295 | 0.239 | 0.207 | 0.302 | 0.43 | 0.251 | 0.206 | 0.662 | 0.699 | 0.636 | 0.667 | 0.249 | 0.824 |
| NCI-H1993 | 0.482 | 0.498 | 0.42 | 0.477 | 0.45 | 0.641 | 0.67 | 0.666 | 0.426 | 0.748 | 0.736 | 1.04 | 0.824 | 0.687 | 0.843 | 0.781 | 0.707 | 0.535 | 0.681 |
| NCI-H460 | 0.553 | 0.582 | 0.571 | 0.0312 | 0.0172 | 0.213 | 0.194 | 0.175 | 0.177 | 0.595 | 0.513 | 0.357 | 0.126 | 0.977 | 1.24 | 0.983 | 0.982 | 0.166 | 0.94 |
| NCI-H322M | 0.77 | 0.84 | 0.827 | 0.494 | 0.306 |  | 0.486 | 0.465 | 0.447 | 0.724 | 0.608 | 0.521 | 0.496 | 0.478 | 0.642 | 0.616 | 0.701 | 0.53 | 0.584 |
| HCC-827 | 0.37 | 0.44 | 0.428 | 0.394 | 0.279 | 0.455 | 0.492 | 0.498 | 0.413 | 0.259 | 0.214 | 0.239 | 0.224 | 0.153 | 0.211 | 0.178 | 0.18 | 0.463 | 0.175 |
| NCI-H1651 | 0.33 | 0.342 | 0.173 | 0.133 | 0.0929 | 0.507 | 0.544 | 0.505 | 0.529 | 0.486 | 0.424 | 0.363 | 0.184 | 0.642 | 0.782 | 0.722 | 0.892 | 0.534 | 0.893 |
| EKVX | 0.204 | 0.24 | 0.257 | 0.114 | 0.221 | 0.312 | 0.411 | 0.38 | 0.423 | 0.81 | 0.618 | 0.782 | 0.741 | 0.218 | 0.191 | 0.175 | 0.186 | 0.392 | 0.186 |
| 201T | 0.404 | 0.482 | 0.483 | 0.464 | 0.328 | 0.336 | 0.375 | 0.329 | 0.344 | 0.641 | 0.609 | 0.522 | 0.383 | 0.891 |  | 1.03 | 1.06 | 0.384 | 1.05 |
| NCI-H1975 |  | 0.367 | 0.197 | 0.0933 | 0.0936 | 0.594 | 0.792 | 0.554 | 0.493 | 0.793 | 0.727 | 0.705 | 0.765 | 0.719 | 1.01 | 0.971 | 0.869 | 0.475 | 0.798 |
| NCI-H2347 | 0.274 |  | 0.341 | 0.163 | 0.141 | 0.384 | 0.441 | 0.465 | 0.335 | 0.905 | 0.749 | 0.665 | 0.549 | 0.982 | 0.902 | 0.906 | 0.933 | 0.437 | 0.888 |
| PC-14 | 0.549 | 0.774 | 0.557 | 0.115 | 0.0595 | 0.52 | 0.53 | 0.419 | 0.535 | 0.4 | 0.334 | 0.355 | 0.205 | 0.297 | 0.339 | 0.312 | 0.304 | 0.566 | 0.304 |
| LK-2 | 0.628 | 0.584 | 0.158 | 0.119 | 0.182 | 0.65 | 0.691 | 0.596 | 0.534 | 0.351 | 0.394 | 0.348 | 0.471 | 0.953 | 0.852 | 0.819 |  | 0.609 | 0.867 |
| NCI-H358 | 0.338 | 0.4 | 0.203 | 0.0604 | 0.0694 | 0.127 | 0.14 | 0.184 | 0.126 | 0.574 | 0.522 | 0.495 | 0.382 | 0.392 | 0.447 | 0.445 | 0.483 | 0.127 | 0.382 |
| ABC-1 | 0.235 | 0.25 | 0.236 | 0.229 | 0.185 | 0.811 | 0.838 | 0.517 | 0.711 | 0.799 | 0.75 | 0.842 | 0.691 | 1.2 | 1.1 | 1.16 | 1.36 |  | 1.12 |
| NCI-H838 | 0.66 | 0.865 | 0.537 | 0.122 | 0.13 | 0.178 | 0.248 | 0.225 | 0.236 | 1.09 | 0.949 | 0.912 | 0.801 | 0.689 | 1.22 |  | 0.987 | 0.239 | 0.996 |
| NCI-H2126 | 0.521 | 0.621 | 0.532 | 0.441 | 0.276 | 0.313 | 0.385 | 0.37 | 0.351 | 1.08 | 0.942 | 0.959 | 0.948 | 0.701 | 0.763 | 0.765 | 0.727 | 0.342 | 0.763 |
| HCC-366 | 0.622 | 0.678 | 0.596 | 0.565 | 0.17 | 0.381 | 0.429 | 0.347 | 0.449 | 0.258 | 0.196 | 0.168 | 0.0718 | 1 | 1.06 | 1.05 | 1.11 |  |  |
| NCI-H2085 | 0.708 | 0.862 | 0.491 | 0.259 | 0.244 | 0.464 | 0.484 | 0.469 | 0.44 | 1.1 | 0.875 | 0.962 | 0.881 | 0.724 | 0.899 | 0.785 | 0.715 | 0.442 | 0.709 |
| LU99A | 0.921 | 0.806 | 0.721 | 0.757 | 0.263 | 0.411 | 0.407 | 0.384 | 0.357 | 0.337 | 0.213 | 0.204 | 0.125 | 0.824 | 1.02 | 0.976 | 0.928 | 0.42 | 1.03 |
| NCI-H1944 | 0.187 | 0.2 | 0.202 | 0.204 | 0.139 | 0.284 | 0.315 | 0.307 | 0.344 | 0.511 | 0.729 | 0.43 | 0.383 | 0.751 | 0.82 | 0.767 | 0.863 | 0.345 | 0.715 |
